Test results: patent US10875858B2, “Process for preparing halogenated pyridine derivatives” (Bayer CropScience Aktiengesellschaft, priority 2016, dated 2020)

test: log P by HPLC-MS; assay type: physicochemical

Structure (SMILES)	chromatographic logP
COC(=O)c1ccc(F)c(-c2nc3cc(C(F)(F)F)ncc3n2C)n1 [Example 3, methyl 5-fluoro-6-[3-methyl-6-(trifluoromethyl)-3H-imidazo[4,5-c]pyridin-2-yl]pyridine-2-carboxylate]	2.03
Cn1c(-c2nc(Cl)ccc2F)nc2cc(C(F)(F)F)ncc21 [Example 2, 2-(6-chloro-3-fluoropyridin-2-yl)-3-methyl-6-(trifluoromethyl)-3H-imidazo[4,5-c]pyridine]	2.38
Cn1c(-c2nc(Br)ccc2F)nc2cc(C(F)(F)F)ncc21 [Example 4, 2-(6-bromo-3-fluoropyridin-2-yl)-3-methyl-6-(trifluoromethyl)-3H-imidazo[4,5-c]pyridine]	2.51

Second part, the molecule after the results:

chromatographic logP	Structure (SMILES)
2.09	COC(=O)c1ccc(F)c(-c2nc3cc(C(F)(F)F)nnc3n2C)n1 [Example 7, methyl 5-fluoro-6-[7-methyl-3-(trifluoromethyl)-7H-imidazo[4,5-c]pyridazin-6-yl]pyridine-2-carboxylate]
2.58	Cn1c(-c2nc(Br)ccc2F)nc2cc(C(F)(F)F)nnc21 [Example 8, 6-(6-bromo-3-fluoropyridin-2-yl)-7-methyl-3-(trifluoromethyl)-7H-imidazo[4,5-c]pyridazine]
0.95	Cn1cnc2cc(C(F)(F)F)nnc21 [Example 5, 7-methyl-3-(trifluoromethyl)-7H-imidazo[4,5-c]pyridazine]
2.46	Cn1c(-c2nc(Cl)ccc2F)nc2cc(C(F)(F)F)nnc21 [Example 6, 6-(6-chloro-3-fluoropyridin-2-yl)-7-methyl-3-(trifluoromethyl)-7H-imidazo[4,5-c]pyridazine]
